# Measured values as given in patent US12060347B2 (BRISTOL-MYERS SQUIBB COMPANY, priority 2016, dated 2024).
# pIC50: −log10 of the molar value.
# Biological target: T1, human PAR4 (Homo sapiens, UniProt Q96RI0)
# T1 construct: expressed in transfected cells; host or cells: HEK293 PAR4 Clone 1.2A (BMS Arctic ID 383940)
# T1 sequence (Q96RI0 18-385): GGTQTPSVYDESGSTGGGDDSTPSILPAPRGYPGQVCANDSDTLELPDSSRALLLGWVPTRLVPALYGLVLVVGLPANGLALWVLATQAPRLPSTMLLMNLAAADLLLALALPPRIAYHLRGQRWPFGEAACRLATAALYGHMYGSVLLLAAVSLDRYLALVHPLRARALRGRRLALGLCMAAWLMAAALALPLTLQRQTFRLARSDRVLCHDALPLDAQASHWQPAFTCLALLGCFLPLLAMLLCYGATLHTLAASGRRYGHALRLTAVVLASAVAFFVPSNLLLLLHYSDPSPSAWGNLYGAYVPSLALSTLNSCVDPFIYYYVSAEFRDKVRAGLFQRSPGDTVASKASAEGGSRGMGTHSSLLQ
# Assay: PAR4 FLIPR assay: antagonism of agonist-peptide-induced calcium mobilization in PAR4-expressing HEK293 cells
# Type: cell-based
# Conditions: H-Ala-Phe(4-F)-[…]NH2-induced intracellular calcium mobilization, 11-point curves
row,Structure (SMILES),pIC50
1,"COc1cnc2c(-c3nc4cc(F)c(O[C@@H](C)[C@@H](C)OC(=O)Nc5ccnc(OCCC(C)(C)O)c5)nc4s3)cc(C)cc2n1 [Example 727, (2R,3S)-3-((6-fluoro-2-(2-methoxy-7-methylquinoxalin-5-yl)thiazolo[5,4-b]pyridin-5-yl)oxy)butan-2-yl (2-(3-hydroxy-3-methylbutoxy)pyridin-4-yl)carbamate]",8.77
2,"COc1cnc2c(-c3nc4cc(F)c(O[C@@H](C)[C@@H](C)OC(=O)Nc5cnc(OCCC(C)(C)O)nc5)nc4s3)cc(C)cc2n1 [Example 730, (2R,3S)-3-((6-fluoro-2-(2-methoxy-7-methylquinoxalin-5-yl)thiazolo[5,4-b]pyridin-5-yl)oxy)butan-2-yl (2-(3-hydroxy-3-methylbutoxy)pyrimidin-5-yl)carbamate]",7.89
3,"COc1cnc2c(-c3nc4c(C)cc(OC[C@@H](C)OC(=O)Nc5cnc(Cl)nc5)nc4s3)cc(C)cc2n1 [Example 736, (R)-1-((2-(2-methoxy-7-methylquinoxalin-5-yl)-7-methylthiazolo[5,4-b]pyridin-5-yl)oxy) propan-2-yl (2-chloropyrimidin-5-yl)carbamate]",8.28
4,"COc1cnc2c(-c3nc4c(C)cc(OC[C@@H](C)OC(=O)Nc5cnc(C)nc5)nc4s3)cc(C)cc2n1 [Example 737, (R)-1-((2-(2-methoxy-7-methylquinoxalin-5-yl)-7-methylthiazolo[5,4-b]pyridin-5-yl)oxy) propan-2-yl (2-methylpyrimidin-5-yl)carbamate]",8.09
5,"COc1cnc2c(-c3nc4c(C)cc(OC[C@@H](C)OC(=O)Nc5cnc(OC)nc5)nc4s3)cc(C)cc2n1 [Example 738, (R)-1-((2-(2-methoxy-7-methylquinoxalin-5-yl)-7-methylthiazolo[5,4-b]pyridin-5-yl)oxy) propan-2-yl (2-methoxypyrimidin-5-yl)carbamate]",8.00
6,"COc1cnc2c(-c3nc4cc(F)c(OC[C@@H](C)OC(=O)Nc5ccc(C(=O)NC[C@H](C)O)nc5)nc4s3)cc(C)cc2n1 [Example 748, (R)-1-((6-fluoro-2-(2-methoxy-7-methylquinoxalin-5-yl)thiazolo[5,4-b]pyridin-5-yl)oxy) propan-2-yl (6-(((S)-2-hydroxypropyl)carbamoyl)pyridin-3-yl)carbamate]",8.54
7,"COc1cnc2c(-c3nc4cc(F)c(OC[C@@H](C)OC(=O)Nc5cnc(C(N)=O)nc5)nc4s3)cc(C)cc2n1 [Example 749, (R)-1-((6-fluoro-2-(2-methoxy-7-methylquinoxalin-5-yl)thiazolo[5,4-b]pyridin-5-yl)oxy) propan-2-yl (2-carbamoylpyrimidin-5-yl)carbamate]",8.37
8,"COc1cnc2c(-c3nc4cc(F)c(O[C@@H](C)[C@@H](C)OC(=O)Nc5cnc(C(=O)NCC(C)(C)O)nc5)nc4s3)cc(C)cc2n1 [Example 751, (2R,3S)-3-((6-fluoro-2-(2-methoxy-7-methylquinoxalin-5-yl)thiazolo[5,4-b]pyridin-5-yl)oxy)butan-2-yl (2-((2-hydroxy-2-methylpropyl)carbamoyl)pyrimidin-5-yl)carbamate]",8.33
9,"COc1cnc2c(-c3nc4cc(F)c(O[C@@H](C)[C@@H](C)OC(=O)Nc5cnc(C(=O)NC[C@@H](C)O)nc5)nc4s3)cc(C)cc2n1 [Example 752, (2R,3S)-3-((6-fluoro-2-(2-methoxy-7-methylquinoxalin-5-yl)thiazolo[5,4-b]pyridin-5-yl)oxy)butan-2-yl (2-(((R)-2-hydroxypropyl)carbamoyl)pyrimidin-5-yl)carbamate]",7.85
10,"COc1cnc2c(-c3nc4cc(F)c(O[C@@H](C)[C@@H](C)OC(=O)Nc5cnc(C(=O)NC[C@H](C)O)nc5)nc4s3)cc(C)cc2n1 [Example 753, (2R,3S)-3-((6-fluoro-2-(2-methoxy-7-methylquinoxalin-5-yl)thiazolo[5,4-b]pyridin-5-yl)oxy)butan-2-yl (2-(((S)-2-hydroxypropyl)carbamoyl)pyrimidin-5-yl)carbamate]",7.92
11,"COCc1cnc2c(-c3nc4c(C)c(F)c(OC)nc4s3)cc(C)cc2n1 [Example 763, 6-fluoro-5-methoxy-2-(2-(methoxymethyl)-7-methylquinoxalin-5-yl)-7-methylthiazolo[5,4-b]pyridine]",8.40

# Continued, values first:
row,pIC50,Structure (SMILES)
1,8.62,"COc1cnc2c(-c3nc4cc(F)c(O[C@@H](C)[C@@H](C)OC(=O)Nc5cnc(OC[C@H](C)O)nc5)nc4s3)cc(C)cc2n1 [Example 728, (2R,3S)-3-((6-fluoro-2-(2-methoxy-7-methylquinoxalin-5-yl)thiazolo[5,4-b]pyridin-5-yl)oxy)butan-2-yl (2-((S)-2-hydroxypropoxy)pyrimidin-5-yl)carbamate]"
2,8.55,"COc1cnc2c(-c3nc4cc(F)c(O[C@@H](C)[C@@H](C)OC(=O)Nc5cnc(OC[C@@H](C)O)nc5)nc4s3)cc(C)cc2n1 [Example 729, (2R,3S)-3-((6-fluoro-2-(2-methoxy-7-methylquinoxalin-5-yl)thiazolo[5,4-b]pyridin-5-yl)oxy)butan-2-yl (2-((R)-2-hydroxypropoxy)pyrimidin-5-yl)carbamate]"
3,9.05,"COc1cnc2c(-c3nc4cc(F)c(O[C@@H](C)[C@@H](C)OC(=O)Nc5cnc(C)nc5)nc4s3)cc(C)cc2n1 [Example 731, (2R,3S)-3-((6-fluoro-2-(2-methoxy-7-methylquinoxalin-5-yl)thiazolo[5,4-b]pyridin-5-yl)oxy)butan-2-yl (2-methylpyrimidin-5-yl)carbamate]"
4,8.96,"COc1cnc2c(-c3nc4c(C)cc(OC[C@@H](C)OC(=O)Nc5cccnc5)nc4s3)cc(C)cc2n1 [Example 733, (R)-1-((2-(2-methoxy-7-methylquinoxalin-5-yl)-7-methylthiazolo[5,4-b]pyridin-5-yl)oxy)propan-2-yl pyridin-3-ylcarbamate]"
5,9.00,"COc1cnc2c(-c3nc4c(C)cc(OC[C@@H](C)OC(=O)Nc5cnc(F)c(C)c5)nc4s3)cc(C)cc2n1 [Example 734, (R)-1-((2-(2-methoxy-7-methylquinoxalin-5-yl)-7-methylthiazolo[5,4-b]pyridin-5-yl)oxy) propan-2-yl (6-fluoro-5-methylpyridin-3-yl)carbamate]"
6,8.96,"COc1cnc2c(-c3nc4c(C)cc(OC[C@@H](C)OC(=O)Nc5cncc(C#N)c5)nc4s3)cc(C)cc2n1 [Example 735, (R)-1-((2-(2-methoxy-7-methylquinoxalin-5-yl)-7-methylthiazolo[5,4-b]pyridin-5-yl)oxy) propan-2-yl (5-cyanopyridin-3-yl)carbamate]"
7,8.68,"COc1cnc2c(-c3nc4cc(F)c(OC[C@@H](C)OC(=O)Nc5ccc(C(=O)NCC(C)(C)O)nc5)nc4s3)cc(C)cc2n1 [Example 741, (R)-1-((6-fluoro-2-(2-methoxy-7-methylquinoxalin-5-yl)thiazolo[5,4-b]pyridin-5-yl)oxy) propan-2-yl (6-((2-hydroxy-2-methylpropyl)carbamoyl)pyridin-3-yl)carbamate]"
8,8.62,"COc1cnc2c(-c3nc4cc(F)c(OC[C@@H](C)OC(=O)Nc5ccc(C(=O)NC[C@@H](C)O)nc5)nc4s3)cc(C)cc2n1 [Example 747, (R)-1-((6-fluoro-2-(2-methoxy-7-methylquinoxalin-5-yl)thiazolo[5,4-b]pyridin-5-yl)oxy) propan-2-yl (6-(((R)-2-hydroxypropyl)carbamoyl)pyridin-3-yl)carbamate]"
9,8.96,"COc1cnc2c(-c3nc4cc(F)c(O[C@@H](C)[C@@H](C)OC(=O)Nc5ccc(C(=O)NC[C@H](C)O)nc5)nc4s3)cc(C)cc2n1 [Example 750, (2R,3S)-3-((6-fluoro-2-(2-methoxy-7-methylquinoxalin-5-yl)thiazolo[5,4-b]pyridin-5-yl)oxy)butan-2-yl (6-(((S)-2-hydroxypropyl)carbamoyl)pyridin-3-yl)carbamate]"
10,9.52,"COc1cnc2c(-c3nc4cc(F)c(O[C@@H](C)[C@@H](C)OC(=O)Nc5ccc(C(N)=O)nc5)nc4s3)cc(C)cc2n1 [Example 754, (2R,3S)-3-((6-fluoro-2-(2-methoxy-7-methylquinoxalin-5-yl)thiazolo[5,4-b]pyridin-5-yl)oxy)butan-2-yl (6-carbamoylpyridin-3-yl)carbamate]"
11,9.52,"COc1cnc2c(-c3nc4cc(F)c(O[C@@H](C)[C@@H](C)OC(=O)Nc5cnc(C(N)=O)nc5)nc4s3)cc(C)cc2n1 [Example 755, (2R,3S)-3-((6-fluoro-2-(2-methoxy-7-methylquinoxalin-5-yl)thiazolo[5,4-b]pyridin-5-yl)oxy)butan-2-yl (2-carbamoylpyrimidin-5-yl)carbamate]"
12,8.85,"COc1cnc2c(-c3nc4c(C)cc(OCCNS(=O)(=O)c5ccc(C)cc5)nc4s3)cc(C)cc2n1 [Example 762, N-(2-((2-(2-methoxy-7-methylquinoxalin-5-yl)-7-methylthiazolo[5,4-b]pyridin-5-yl)oxy)ethyl)-4-methylbenzenesulfonamide]"
13,8.77,"COc1cnc2c(-c3nc4cc(F)c(O[C@@H](C)[C@@H](C)OC(=O)Nc5cnc(CO)nc5)nc4s3)cc(C)cc2n1 [Example 764, (2R,3S)-3-((6-fluoro-2-(2-methoxy-7-methylquinoxalin-5-yl)thiazolo[5,4-b]pyridin-5-yl)oxy)butan-2-yl (2-(hydroxymethyl)pyrimidin-5-yl)carbamate]"
14,9.10,"COc1cnc2c(-c3nc4cc(F)c(O[C@@H](C)[C@@H](C)OC(=O)Nc5ccc(C(C)(C)O)nc5)nc4s3)cc(C)cc2n1 [Example 765, (2R,3S)-3-((6-fluoro-2-(2-methoxy-7-methylquinoxalin-5-yl)thiazolo[5,4-b]pyridin-5-yl)oxy)butan-2-yl (6-(2-hydroxypropan-2-yl)pyridin-3-yl)carbamate]"
